Data reported in US20260091078A1, “OLIGOPEPTIDE THAT INHIBITS ANGIOGENESIS AND VASCULAR FUNCTION” (UNIVERSIDAD NACIONAL AUTONOMA DE MEXICO, priority 2019, published 2026).

Key:
[1] = tested on: primary cells from the human umbilical vein (HUVEC); assay: Transwell Matrigel invasion of HUVEC stimulated with VEGF; format: cell-based; conditions: 100 nM, VEGF 50 ng mL^-1, 24 hours
Description: Endothelial cells were seeded over 100 μl Matrigel™ matrix (380 ng μl^−1) on a permeable ‘transwell’ support in a transwell chamber having an area of 0.33 cm^2 and 8 μm of pore-diameter at a density of 30,000 and 14,000 cells cm^−2 for BUVEC E6E7 and HUVEC cells, respectively. In the upper (luminal) compartment the cells were maintained with starving media F12K having 0.1 or 0.5% FBS for BUVEC E6E7 and HUVEC, respectively. In addition, HUVEC cells were maintained with 100 μg ml^−1 heparin. […] After 24 hours the media from both compartments and the luminal cells were removed. The abluminal cells were fixed with 100% MeOH for 10 minutes, permeabilized with TBS1x-0.5% Triton X-100, and stained with Hoechst 33342. The total number of cells in the abluminal compartment indicates the invasive activity of endothelial cells.
The inhibitory effect of 100 nM of the oligopeptide THGRGFI on the invasion of immortalized endothelial cells from the bovine umbilical vein (BUVEC E6E7) (FIG. 3A) or primary cells from the human umbilical vein (HUVEC) (FIG. 3B) stimulated in each case with VEGF (50 ng mL^−1) was compared with the inhibitory effect of 100 nM of the 123 amino acid vasoinhibin (***P<0.001).

[2] = tested on: interleukin-1α (IL-1α); assay: Expression of vasoinhibin target gene IL-1α mRNA in BUVEC E6E7 (qPCR); format: cell-based, bovine; conditions: BUVEC E6E7, 100 nM, 4 hours
Description: Vasoinhibin induces the expression of a variety of genes via the activation of NF-KB to promote angiostatic and inflammatory effects. In particular, interleukin-1 alpha (IL-1α) and the intercellular adhesion molecule 1 (ICAM1) are vasoinhibin gene targets in the bovine endothelial cells. To evaluate the ability of the oligopeptide […] to induce the expression of IL-1α and ICAM1, BUVEC […] cells were seeded on 12 well plates with F12K-10% FBS, grown to 80% confluency, and starved with low serum (0.1% FBS) culture medium for 24 h. […] After 4 hours the RNA was extracted from the cells using Trizol (Invitrogen, Carlsbad, CA) and retrotranscribed using the High Capacity cDNA Reverse Transcription Kit (Applied Biosystems, Foster City, CA). The RT-PCR products were quantified in a Maxima SYBRgreen qPCR (Thermo Fisher Scientific) 10 μl final volume reaction mixture containing the template and 0.25 μM of each primer. The PCR amplification was done in the CFX96 Real Time PCR (BioRad), comprising a 10-minute denaturalization at 95° C., followed by 35 amplification cycles (95° C. for 10 sec, 58° C. for 30 sec, and 72° C. for 30 sec). […] The PCR data was analyzed by the 2^-ΔΔCT method and the threshold of the cycles (CT) was normalized by the constitutive housekeeping gene cyclophilin A (PPIA). […]

[3] = tested on: BUVEC E6E7; assay: Vasopermeability in vitro: transendothelial electrical resistance (TEER); format: cell-based, bovine; conditions: BUVEC E6E7 monolayer, 100 nM, 50 ng ml^-1 VEGF, up to 120 minutes
Description: Another conventional protocol to evaluate vasopermeability is the measurement of the transendothelial electrical resistance (TEER), which uses a device that applies an electric current through electrodes at both sides of the endothelial cell monolayer. […] The effect of the oligopeptide THGRGFI on endothelial cell permeability was evaluated by measuring TEER. BUVEC E6E7 were seeded in the TEER device at a density of 10,000 cells cm^−2. After three days, the monolayers were starved in low serum media (0.1% FBS) for 48 hours and after this time, 100 nM of vasoinhibin or of the oligopeptide were added to the upper compartment (luminal surface of the monolayer) for 1 hour. At time 0, TEER was recorded and 50 ng ml^−1 of VEGF were added to the luminal side. The TEER was measured at 10, 20, 30, 60, 90 and 120 minutes. Determinations were performed with the Epithelial Volt/Ohm (TEER) EVOM2 equipment (World Precision Instruments, FL, USA) with a 4 mm ‘chopstick’ electrode. Values were normalized relative to a device with no cells and a monolayer without treatment.

Ac-THGRGFI-NH2 [THGRGFI, Thr His Gly Arg Gly Phe Ile]
inhibition of invasion of endothelial cells [1]: significatively inhibited
fold-change of expression of IL-1α mRNA versus non-treated control [2]: ~30 fold
effect on VEGF-induced reduction of transendothelial resistance (TEER) [3]: block the VEGF effect
